Values joined by “and” are separate entries in the source; they are usually repeats but may differ in a detail not shown here. Equal values may be shown once.
Legend:
Assay type in all cases: biochemical
subtilisin [1] = assay: Inhibition of subtilisin by TOM in the presence of Tide Liquid, diluted 1/500; conditions: for % Activity Recovered Upon Dilution / Subtilisin activity, Tide 2 mg/ml TOM: 2 mg/ml TOM in Tide Liquid, diluted 1/500
Experimental: 2 mg/ml of TOM was added to Tide™ Liquid (commercially available from The Procter & Gamble Co). The solution was diluted 1/500 into the standard subtilisin 8.6 Tris buffer. 10 μl aliquots were taken at various times to monitor subtilisin activity. Similar dilutions and assay procedures were carried out with Tide™ Liquid. 100 mg/ml SAAPFpna substrate was used.

subtilisin [2] = assay: Dilution assay: inhibition mixture diluted, final 1:1000, recovered subtilisin activity; conditions: final dilution 1:1000, 0.1M Tris pH 8.6
Experimental: The above inhibition assay is diluted 1:10 into the standard subtilisin assay buffer (0.1M Tris, pH 8.6 with 0.005% Tween). 10 μl of this diluted material is then added to a cuvette containing 10 μl of 100 mg/ml SAAPFpna and 980 μl subtilisin Assay Buffer. The rate of reaction is followed at 410 nm. The final dilution is 1:1000.

subtilisin [3] = assay: Inhibition assay: subtilisin incubated with inhibitor, rate of substrate hydrolysis monitored; conditions: about 2 mg/ml TOM; summary of Tables I and II
Experimental: The inhibitor solution is made up in a 20 mM Mops, pH 7 buffer and added to an eppendorf. 0.8 mM subtilisin is added and the mixture is allowed to incubate at room temperature for 15 minutes. After 15 minutes, 99 μl of the mixture is added to a cuvette containing 10 μl of 100 mg/ml SAAApna. The rate of hydrolysis is monitored at […]. A subtilisin control containing no inhibitor is carried out.

turkey ovomucoid [TOM]
enzyme activity recovered immediately upon appropriate dilution (subtilisin [1]; about 2 mg/ml TOM, summary of Tables I and II): > 25% and 46%
% Activity Recovered Upon Dilution (subtilisin [1]; time 0 min): 46%
Subtilisin activity, Tide 2 mg/ml TOM (subtilisin [1]; time 0 min): 1.04
% Activity Recovered Upon Dilution (subtilisin [1]; time 15 min): 38%
Subtilisin activity, Tide 2 mg/ml TOM (subtilisin [1]; time 15 min): 0.97
% Activity Recovered Upon Dilution (subtilisin [1]; time 30 min): 33%
Subtilisin activity, Tide 2 mg/ml TOM (subtilisin [1]; time 30 min): 0.965
Dilution Assay % Recovered Activity (subtilisin [2]; 0.4 mg/ml TOM): 32%
Dilution Assay % Recovered Activity (subtilisin [2]; 2 mg/ml TOM): 45%
active enzyme bound by inhibitor (subtilisin [3]): at least 90%

— patent publication US5178789A, “Liquid detergent with stabilized enzyme” (Genencor International, Inc., priority 1991, dated 1993)
